Like-named read-outs stand apart in the source and are kept apart here.
Legend:
[1] = tested on: Primary human melanocytes; settings: for effect on melanocyte proliferation rates: FIG. 3
Description: Primary human melanocytes, passage 3, were kindly obtained from Dr. Todd Ridky in the department of dermatology, Stanford University. Cells were cultured in Medium 254 (Cascade Biologics) supplemented with Human Melanocyte Growth Supplement (HMGS, Cascade Biologics). They were grown in a humidified atmosphere with 5% CO2 at 37° C. Cell plating densities were arranged that those cells were in log phase of growth for the duration of incubation with test samples. Subcultures of cells were plated at a density of 4×10^4 cells/cm^2. Approximately 24 h later, fresh medium and test samples were added. Cells were harvested 7 d after test samples addition, replaced with fresh medium and test samples every two days.
Cell viability was determined using WST-1 Cell Proliferation Kit (Roche). Cells were plated at 1×10^5/well (24-well plates). Twenty-four hours after plating, test samples were added and cultures were incubated for an additional 7 d. At the end of the treatment period, 50 μl WST-1 was added to each well. The plates were placed at 37° C. for 4 h in the dark and the absorbance at 450 nm was read using microplate. Usually, 3 replicate wells were measured for each group to be tested. Wells containing medium but no cells served as controls. Cell viability was calculated according to the equation: cell viability=absorbance(sample tested)/absorbance(medium only)×100%.
The concentrations of HQ tested on melanocytes were 1, 10, 100, and 1000 μM, while those of YR peptide were 1, 10, and 100 μM.

Human melanocytes = experiment: Melanin content measurement in melanocytes; assay type: cell-based; settings: FIG. 4; for melanin content: 10 μM (YR peptide: similar concentration), 7 days
Description: Human melanocytes were cultured in 6-well plates and treated with individual test samples for 7 d. After washes in PBS, cells were detached by short incubation in trypsin/EDTA (0.25%/0.1% in PBS). An aliquot was used for cell count. The remaining cells were sonicated and incubated overnight in 500 μl 1 M NaOH at 37° C., avoid light. Melanin concentrations were calculated by comparison of the OD at 475 nm of unknown samples with a standard curve obtained with synthetic melanin.
To provide more direct evidence that the YR peptide inhibits melanogenesis, we determined its effects on melanin production in melanocytes. The contents of melanin in melanocytes treated with no addition, YR peptide (P4) or HQ for 7 days were determined with spectrophotometer and compared with melanin standard curve.

Cellular tyrosinase = target: T1, Cellular tyrosinase (Homo sapiens, UniProt P14679); experiment: Cellular tyrosinase activity using L-DOPA as the substrate; assay type: cell-based; settings: for reduction of cellular tyrosinase activity: 7 d treatment of melanocytes
T1 construct: endogenous in cells; host or cells: primary human melanocytes, passage 3
T1 sequence (P14679 19-529): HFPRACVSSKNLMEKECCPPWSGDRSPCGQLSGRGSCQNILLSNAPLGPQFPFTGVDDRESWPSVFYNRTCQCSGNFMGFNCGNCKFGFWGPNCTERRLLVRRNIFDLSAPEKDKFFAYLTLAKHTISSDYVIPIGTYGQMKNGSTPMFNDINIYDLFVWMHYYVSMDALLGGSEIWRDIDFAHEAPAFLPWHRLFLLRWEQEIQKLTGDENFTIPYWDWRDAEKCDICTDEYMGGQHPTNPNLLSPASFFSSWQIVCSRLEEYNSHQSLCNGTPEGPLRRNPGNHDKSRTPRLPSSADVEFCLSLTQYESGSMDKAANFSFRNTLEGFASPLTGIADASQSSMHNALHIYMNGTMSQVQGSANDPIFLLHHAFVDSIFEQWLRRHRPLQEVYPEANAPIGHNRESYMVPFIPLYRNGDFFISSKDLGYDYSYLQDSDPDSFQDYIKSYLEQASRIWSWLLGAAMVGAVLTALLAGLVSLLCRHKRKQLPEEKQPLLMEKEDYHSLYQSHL
Description: Cellular tyrosinase activity using L-DOPA as the substrate was assayed by the method of Cheng K T, Hsu F L, Chen S H, Hsieh P K, Huang H S, Lee C K, Lee M H. 2007. […] Chem. Pharm Bull 55(5): 757-761.
Human melanocytes were cultured in 6-well plates. After treatment with individual test samples for 7 d, the cells were washed with phosphate-buffered saline (PBS) and lysed with phosphate buffer, pH 6.8, containing 1% Triton X-100. After sonication, lysates were clarified by centrifugation at 10000 g for 10 min. After determination of protein content with a Bio-Rad protein assay kit, lysates were added to 96 well culture plate containing equal amounts of protein (40 μg), and adjusted with lysis buffer to reach 150 μl in each well. 75 μl of 10 mM L-DOPA dissolved in lysis buffer was added to each well. The culture plate was incubated at 37° C. for 30 min, and then read with the spectrophotometer at 475 nm.
Tyrosinase inhibitory activity was calculated with the following formula: tyrosinase inhibition (%)=[1−(O.D.475 of sample/O.D.475 of control)]×100%.
After centrifugation and protein calculation, certain volume of supernatant for each sample was transferred to 96 well culture plate by compensating a certain protein content in each well, and adjusted the volume of each well to 150 μl with 0.067 M of phosphate buffer (pH 6.8). 75 μl of 10 mM L-DOPA dissolved in phosphate buffer (pH 6.8) was added to each well. The culture plate was incubated at 37° C. for 30 min, and then read with the spectrophotometer at 475 nm.

tyrosinase = settings: read-out: published IC50; literature value; cited from earlier work
Mushroom tyrosinase = Mushroom tyrosinase inhibition, colorimetric detection of dopachrome from L-tyrosine; assay type: biochemical; settings: for IC50 (result in words): L-tyrosine substrate, pH 6.8, 37° C., absorbance at 475 nm 30 min after initiation; for inhibitory activity on tyrosinase: in vitro, FIG. 1, FIG. 2 and peptide screen
Description: Mushroom tyrosinase, L-tyrosine and other chemicals for the enzymatic reaction were obtained from Sigma-Aldrich. […] All synthetic peptides were between 3 and 10 amino acids in length and were synthesized using tBoc and/or Fmoc solid phase chemistry.
Inhibition of tyrosinase by experimental peptides was determined by colorimetric detection of dopachrome, the reaction product of the substrate L-tyrosine. Mushroom tyrosinase, L-tyrosine, and a potassium phosphate buffer (pH 6.8) were added to 96-well plates containing short sequence peptides dissolved in 5% DMSO and incubated at 37° C. The absorbance at 475 nm was measured using a BIO-TEK plate reader 30 min after reaction initiation. Each experiment was performed in triplicate on 3 separate occasions. The protocol is described in further detail in Piao et al., “Mushroom Tyrosinase Inhibition Activity of Some Chromones,” Chem. Pharm. Bull. […]: 309-311 (2002), and in Pomerants, J. Biol. Chem. 238:2351-2357 (1963).
Enzyme kinetics were calculated using the Michaelis-Menton equation by observing changes in reaction velocity accompanying substrate concentrations of 0.5, 1, 2, and 4 mM L-tyrosine. Once initial reaction velocities were obtained, Lineweaver-Burke plots were created to calculate Km, Vmax, and to determine the mode of enzymatic inhibition.
Tyrosinase inhibition activity was determined in vitro using L-tyrosine as substrate with a modified method from Piao L Z, Park H R, Park Y K, Lee S K, Park J H, Park M K. 2002. Mushroom Tyrosinase Inhibition Activity of Some Chromones. Chem. Pharm Bull 50(3): 309-311.
The concentration of enzyme, substrate and inhibitor was denoted as [E], [S] and […], respectively. 80 microliters of 0.067 M potassium phosphate buffer (pH 6.8), 40 microliters of L-tyrosine in 0.067 M potassium phosphate buffer (pH 6.8), 40 microliters of inhibitor in 5% DMSO solution, and 40 microliters of mushroom tyrosinase solution were added to a 96-well microplate, to make the final concentration of each reagent to be: 0.2 mg/ml [S], and 96 units/ml [E], with varying [I]. 5% DMSO solution instead of an inhibitor solution was added to a blank solution and adjusted to the total volume of 200 microliters as control. The assay mixture was incubated at 37° C. The amount of dopachrome produced in the reaction mixture was measured at 475 nm in a microplate reader at different time periods. The percentage of inhibition of tyrosinase activity was calculated as follows: Inhibition(%)=[(A−B)−C−D)]/(A−B)×100 • A: absorbance of blank solution after incubation • B: absorbance of blank solution before incubation • C: absorbance of sample solution after incubation • D: absorbance of sample solution before incubation

Row | Compound | melanin content (Human melanocytes) | reduction of cellular tyrosinase activity (Cellular tyrosinase; 10 μM) | IC50 (result in words) (Mushroom tyrosinase) | inhibitory activity on tyrosinase (Mushroom tyrosinase) | also measured
1 | Oc1ccc(O)cc1 [HQ, Hydroquinone, reference compound] | slightly reduced melanin content | 28.8% | – | – | effect on melanocyte proliferation rates ([1]; up to 10 μM): did not show inhibitory effects; IC50 (tyrosinase): ~700 µM
2 | KFEFKFEF | – | – | no effect | only the former peptide had inhibiting activity | –
3 | KFEKKFEK | – | – | – | had inhibiting activity | –
4 | VLLK [control peptide; inner standard in stability testing] | – | – | no effect | only the YR peptide had inhibitory activity | –
5 | YRSRKYSSWY | significantly reduced melanin content, to a greater extent than HQ | 24.1% | – | had inhibitory activity on tyrosinase | effect on melanocyte proliferation rates ([1]; 1, 10 and 100 μM, listed as P4): did not observe any inhibitory effects; effect on melanocyte proliferation rates ([1]; 1, 10 and 100 μM, listed as YR peptide): did not inhibit cell proliferation; toxicity to melanocytes ([1]; up to 100 μM, treatment for 7 days): No toxicity was observed; melanin synthesis in human melanocytes (Human melanocytes): inhibited melanin synthesis; reduction of cellular tyrosinase activity (Cellular tyrosinase; 1 μM): 14.5%; reduction of cellular tyrosinase activity (Cellular tyrosinase; 100 μM): 37.4%; inhibition of tyrosinase activity, in words (Cellular tyrosinase; FIG. 5, after incubation of melanocytes): comparable to that of HQ

From patent US8193154B2, “Oligopeptide tyrosinase inhibitors and uses thereof” (The Board of Trustees of the Leland Stanford Junior …, priority 2007, dated 2012)
